Data: DBAASP
Values after ≈ are worked out from the molar mass of the structure shown. Values joined by “and” are separate entries in the source; they are usually repeats but may differ in a detail not shown here. Equal values may be shown once.

Experiments:
Test in all cases: ≥ marks a high value that may be exact or a test limit, other limits are often not marked, values filed in µg/mL are converted to µM
[1] = system: Acinetobacter baumannii ATCC 19606
Escherichia coli MG1655 = system: Escherichia coli MG1655
[2] = system: Zymomonas mobilis ATCC 10988
[3] = system: Staphylococcus saprophyticus
[4] = system: Escherichia coli CCT 1371
Escherichia coli 850 = system: Escherichia coli 850
Proteus mirabilis = system: Proteus mirabilis
[5] = system: Staphylococcus aureus ATCC 6538
[6] = system: Pseudomonas aeruginosa PAO1
[7] = system: Escherichia coli DH5alpha
[8] = system: Staphylococcus aureus 936
Candida parapsilosis = system: Candida parapsilosis
Escherichia coli 804 = system: Escherichia coli 804
Escherichia coli 780 = system: Escherichia coli 780
Pseudomonas aeruginosa = system: Pseudomonas aeruginosa
[9] = system: Staphylococcus epidermidis ATCC 12228
[10] = system: Klebsiella aerogenes ATCC 13048
Escherichia coli DL7 = system: Escherichia coli DL7
Bacillus thuringiensis = system: Bacillus thuringiensis
[11] = system: Candida albicans ATCC 200955
[12] = system: Bacillus subtilis CCT 2471
[13] = system: Klebsiella pneumoniae ATCC 700603
[14] = system: Pseudomonas aeruginosa 124
Escherichia coli ML-35 = system: Escherichia coli ML-35
[15] = system: Enterobacter cloacae ATCC 23355
Acinetobacter baumannii = system: Acinetobacter baumannii
[16] = system: Escherichia coli ATCC 8739
[17] = system: Enterococcus faecium ATCC 700221
[18] = system: Staphylococcus aureus ATCC 33591
[19] = system: Candida albicans ATCC 10231
Staphylococcus aureus MR = system: Staphylococcus aureus MR
[20] = system: Pseudomonas aeruginosa 119
[21] = system: Pseudomonas aeruginosa 86
Bacillus subtilis DELTA = system: Bacillus subtilis DELTA

MIC [1]: 64 µM (≈ 73.8 µg/mL)
MIC (Escherichia coli MG1655): ≥ 32 µM
MIC [2]: ≥ 173 µM
MIC [3]: 4.33 µM (≈ 5 µg/mL)
MIC [4]: ≥ 86.6 µM
MIC (Escherichia coli 850): ≥ 32 µM
MIC (Proteus mirabilis): ≥ 173 µM
MIC [5]: 43.3 µM and 65 µM
MIC [6]: 173 µM (≈ 200 µg/mL)
MIC [7]: ≥ 260 µM
MIC [8]: ≥ 64 µM
MIC (Candida parapsilosis): ≥ 43.3 µM
MIC (Escherichia coli 804): ≥ 32 µM
MIC (Escherichia coli 780): 16 µM (≈ 18.5 µg/mL)
MIC (Pseudomonas aeruginosa): 11.3 µM (≈ 13.1 µg/mL)
MIC [9]: 8 µM (≈ 9.23 µg/mL)
MIC [10]: ≥ 32 µM
MIC (Escherichia coli DL7): 16 µM (≈ 18.5 µg/mL)
MIC (Bacillus thuringiensis): ≥ 173 µM
MIC [11]: ≥ 171 µM
MIC [12]: 17.3 µM (≈ 20 µg/mL)
MIC [13]: 64 µM and 128 µM
MIC [14]: ≥ 32 µM
MIC (Escherichia coli ML-35): 8 µM (≈ 9.23 µg/mL)
MIC [15]: ≥ 173 µM
MIC (Acinetobacter baumannii): 16 µM (≈ 18.5 µg/mL)
MIC [16]: ≥ 35.5 µM
MIC [17]: ≥ 133 µM
MIC [18]: ≥ 512 µM
MIC [19]: 16.9 µM (≈ 19.5 µg/mL)
MIC (Staphylococcus aureus MR): ≥ 45.3 µM
MIC [20]: 4 µM (≈ 4.61 µg/mL)
MIC [21]: 4 µM (≈ 4.61 µg/mL)
MIC (Bacillus subtilis DELTA): ≥ 173 µM
Structure (SMILES): CC[C@H](C)[C@H](NC(=O)[C@H](CCCN=C(N)N)NC(=O)[C@H](CCCCN)NC(=O)[C@H](CC(C)C)NC(=O)[C@H](CC(C)C)NC(=O)CN)C(=O)N[C@@H](CCCCN)C(=O)N[C@H](C(=O)N[C@@H](CC(C)C)C(=O)N[C@@H](CC(C)C)C(N)=O)[C@@H](C)O [GLLKRIKTLL]
